Experimental data: ChEMBL document CHEMBL6153135, “Rational Design of a Potent, Selective, and Metabolically Stable CDK9 Inhibitor to Counteract Osimertinib Resistance through Mcl-1 Suppression and Enhanced BRD4 Co-Targeting” (J Med Chem, 2025)
Activity calls are given as the source filed them. The rule behind the calls is not given here.

How the values were obtained:
[1] = Metabolic stability in monkey liver microsomes assessed as clearance measured for 5 to 60 mins by LC-MS/MS analysis; format: ADME, Macaca mulatta, Microsome; settings: rhesus monkey, time 5-60 min, read-out: CLH
[2] = Clearance in Sprague-Dawley rat at 2 mg/kg, iv; format: ADME, organism-based; settings: in vivo
[3] = Toxicity in BALB-c nude mouse xenografted with human NCI-H1975 cells assessed as pathological damage in lung at 15 mg/kg, iv administered on every two days by H and E staining based analysis; format: organism-based; settings: in vivo
[4] = AUC (0 to infinity) in BALB/c mouse at 15 mg/kg, po; format: ADME, organism-based; settings: in vivo
[5] = Half life in BALB/c mouse at 2 mg/kg, iv; format: ADME, organism-based; settings: in vivo
[6] = AUC (0 to t) in Sprague-Dawley rat at 2 mg/kg, iv; format: ADME, organism-based; settings: in vivo
[7] = tested on: Mus musculus; test: In vivo inhibition of CDK9 in BALB-c nude mouse xenografted with human Osimertinib-resistant HCC827 cells assessed as decrease in Mcl-1 level in tumor tissue at 5 mg/kg, iv in presence of JQ1 by Western blot analysis; format: functional, organism-based
[8] = Tmax in BALB/c mouse at 15 mg/kg, po; format: ADME, organism-based; settings: in vivo
[9] = tested on: 16HBE14o-; test: Anti-proliferative activity against human 16-HBE cells assessed as cell inhibition measured after 72 hrs by MTT assay; format: functional, cell-based
[10] = tested on: Osimertinib-resistant HCC827 cell; test: Upregulation of c-Myc mRNA level in human Osimertinib-resistant HCC827 cells by RNA-Seq analysis; format: functional, cell-based
[11] = tested on: Osimertinib-resistant HCC827 cell; test: Inhibition of stem cell multi-functionality signaling in human Osimertinib-resistant HCC827 cells by KEGG analysis; format: functional, cell-based
[12] = Metabolic stability in human liver S9 fraction assessed as half life measured for 5 to 60 mins by LC-MS/MS analysis; format: ADME, subcellular; settings: time 5-60 min
[13] = Anti-proliferative activity against human Osimertinib-resistant HCC827 cells assessed as cell inhibition measured after 72 hrs by MTT assay; format: functional, cell-based
[14] = tested on: Osimertinib-resistant HCC827 cell; test: Inhibition of cell cycle regulation in human Osimertinib-resistant HCC827 cells by KEGG analysis; format: functional, cell-based
[15] = target: CDK3/Cyclin E (Homo sapiens) (UniProt P24864+Q00526); test: Inhibition of CDK3/Cyclin E1 (unknown origin) at 100 nM preincubated for 10 mins followed by substrate/ATP measured after 60 mins by ADP-Glo assay relative to control; format: protein-complex assay; settings: time 70.0 min
[16] = Apparent volume of distribution in BALB/c mouse at 2 mg/kg, iv; format: ADME, organism-based; settings: in vivo, read-out: Vz
[17] = AUC (0 to t) in BALB/c mouse at 15 mg/kg, po; format: ADME, organism-based; settings: in vivo
[18] = Clearance in BALB/c mouse at 2 mg/kg, iv; format: ADME, organism-based; settings: in vivo
[19] = Metabolic stability in human liver microsomes assessed as clearance measured for 5 to 60 mins by LC-MS/MS analysis; format: ADME, Microsome; settings: time 5-60 min, read-out: CLH
[20] = tested on: Lung adenocarcinoma organoid; test: Anti-tumor activity against Osimertinib-resistant patient (#0416)-derived human Lung adenocarcinoma organoid assessed as inhibition of cell viability measured after 96 hrs; format: functional, tissue-based; settings: Neoplasm
[21] = tested on: Osimertinib-resistant NCI-H1975 cell; test: Induction of apoptosis in human Osimertinib-resistant NCI-H1975 cells assessed as late apoptotic cells at 2 uM incubated for 16 hrs by Annexin V-FITC/PI staining based flow cytometry (reference value: 1.42 %); format: functional
[22] = target: Cyclin-dependent kinase 4/cyclin D1 (Homo sapiens) (UniProt P11802+P24385); test: Inhibition of CDK4/Cyclin D1 (unknown origin) at 100 nM preincubated for 10 mins followed by substrate/ATP measured after 60 mins by ADP-Glo assay relative to control; format: protein-complex assay; settings: time 70.0 min
[23] = tested on: NCI-H1299; test: Anti-proliferative activity against human NCI-H1299 cells assessed as cell inhibition measured after 72 hrs by MTT assay; format: functional, cell-based; settings: NCI-H1299, 72 h
[24] = tested on: HCC827; test: Anti-proliferative activity against human HCC827 cells assessed as cell inhibition measured after 72 hrs in presence of 100 nM JQ1 by MTT assay; format: functional, cell-based; settings: HCC827, 72 h
[25] = tested on: NCI-H1975; test: Antitumor activity against human NCI-H1975 cells xenografted in BALB-c nude mouse assessed as tumor growth inhibition at 5 mg/kg, iv; format: functional, organism-based
[26] = Tmax in Sprague-Dawley rat at 20 mg/kg, po; format: ADME, organism-based; settings: in vivo
[27] = Toxicity in BALB-c nude mouse xenografted with human NCI-H1975 cells assessed as body weight loss at 15 mg/kg, iv administered on every two days; format: organism-based; settings: in vivo
[28] = Toxicity in BALB-c nude mouse xenografted with human NCI-H1975 cells assessed as pathological damage in heart at 15 mg/kg, iv administered on every two days by H and E staining based analysis; format: organism-based; settings: in vivo
[29] = tested on: HCC827; test: Anti-proliferative activity against human HCC827 cells assessed as cell inhibition measured after 72 hrs in presence of 250 nM JQ1 by MTT assay; format: functional, cell-based; settings: HCC827, 72 h
[30] = tested on: Lung adenocarcinoma organoid; test: Anti-tumor activity against patient (#2514)-derived human Lung adenocarcinoma organoid assessed as inhibition of cell viability measured after 96 hrs; format: functional, tissue-based; settings: Neoplasm
[31] = C0 in Sprague-Dawley rat at 2 mg/kg, iv; settings: in vivo
[32] = target: Cyclin-dependent kinase 5/CDK5 activator 1 (Homo sapiens) (UniProt Q00535+Q15078); test: Inhibition of CDK5/p35NCK (unknown origin) at 100 nM preincubated for 10 mins followed by substrate/ATP measured after 60 mins by ADP-Glo assay relative to control; format: protein-complex assay; settings: time 70.0 min
[33] = tested on: NCI-H1975; test: Anti-proliferative activity against human NCI-H1975 cells assessed as cell inhibition measured after 72 hrs in presence of 100 nM JQ1 by MTT assay; format: functional, cell-based; settings: NCI-H1975, 72 h
[34] = Metabolic stability in pig liver microsomes assessed as clearance measured for 5 to 60 mins by LC-MS/MS analysis; format: ADME, Sus scrofa, Microsome; settings: time 5-60 min, read-out: CLH
[35] = target: Homeodomain-interacting protein kinase 3 (Homo sapiens) (UniProt Q9H422); test: Inhibition of HIPK3 (unknown origin) at 100 nM preincubated for 10 mins followed by substrate/ATP measured after 60 mins by ADP-Glo assay relative to control; settings: time 70.0 min
[36] = Selectivity ratio of IC50 for anti-proliferative activity against human NCI-H1975 cells to IC50 for anti-proliferative activity against human NCI-H1975 cells in presence of JQ1; format: functional

Sequence of Homeodomain-interacting protein kinase 3 (Homo sapiens) (Q9H422 whole entry, looked up): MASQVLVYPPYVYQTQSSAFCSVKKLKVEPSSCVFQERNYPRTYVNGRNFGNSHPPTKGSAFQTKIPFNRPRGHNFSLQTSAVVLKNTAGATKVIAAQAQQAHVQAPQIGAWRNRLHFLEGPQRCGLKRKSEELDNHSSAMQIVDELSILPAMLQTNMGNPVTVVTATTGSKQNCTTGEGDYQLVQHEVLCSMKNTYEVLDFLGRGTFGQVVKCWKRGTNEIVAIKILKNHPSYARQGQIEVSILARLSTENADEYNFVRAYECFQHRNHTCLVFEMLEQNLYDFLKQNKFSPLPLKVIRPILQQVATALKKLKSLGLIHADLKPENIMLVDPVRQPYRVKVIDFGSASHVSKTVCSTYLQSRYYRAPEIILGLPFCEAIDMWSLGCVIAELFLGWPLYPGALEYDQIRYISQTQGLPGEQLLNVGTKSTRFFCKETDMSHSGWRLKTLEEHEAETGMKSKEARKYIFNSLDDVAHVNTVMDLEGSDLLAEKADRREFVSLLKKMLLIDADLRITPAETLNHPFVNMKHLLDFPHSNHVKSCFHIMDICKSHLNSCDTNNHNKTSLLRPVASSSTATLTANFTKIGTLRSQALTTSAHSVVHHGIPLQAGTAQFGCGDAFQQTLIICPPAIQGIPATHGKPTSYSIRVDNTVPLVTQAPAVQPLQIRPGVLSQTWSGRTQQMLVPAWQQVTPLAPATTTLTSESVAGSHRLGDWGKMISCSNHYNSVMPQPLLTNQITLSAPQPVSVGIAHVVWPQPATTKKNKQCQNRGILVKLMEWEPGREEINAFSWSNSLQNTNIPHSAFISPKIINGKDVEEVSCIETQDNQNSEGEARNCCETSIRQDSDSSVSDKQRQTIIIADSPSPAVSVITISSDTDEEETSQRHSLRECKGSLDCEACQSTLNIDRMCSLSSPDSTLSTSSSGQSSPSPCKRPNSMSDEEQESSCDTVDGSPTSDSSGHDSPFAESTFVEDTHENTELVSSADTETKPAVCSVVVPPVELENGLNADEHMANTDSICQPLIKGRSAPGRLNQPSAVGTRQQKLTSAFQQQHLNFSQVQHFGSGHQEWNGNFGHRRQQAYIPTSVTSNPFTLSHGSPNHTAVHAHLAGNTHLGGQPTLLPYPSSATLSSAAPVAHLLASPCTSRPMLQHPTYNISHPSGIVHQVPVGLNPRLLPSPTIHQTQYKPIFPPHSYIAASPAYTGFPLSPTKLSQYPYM
Sequence of Cyclin-dependent kinase 5/CDK5 activator 1 (Homo sapiens) (Q00535 whole entry): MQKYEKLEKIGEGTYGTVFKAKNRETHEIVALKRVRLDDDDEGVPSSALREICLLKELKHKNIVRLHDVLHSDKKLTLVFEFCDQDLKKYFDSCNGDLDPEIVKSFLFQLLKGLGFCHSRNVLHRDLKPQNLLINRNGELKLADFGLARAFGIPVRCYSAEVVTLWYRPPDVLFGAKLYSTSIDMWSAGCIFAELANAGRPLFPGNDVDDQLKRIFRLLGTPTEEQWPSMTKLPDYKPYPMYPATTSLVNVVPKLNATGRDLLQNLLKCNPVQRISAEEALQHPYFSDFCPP
Sequence of Cyclin-dependent kinase 5/CDK5 activator 1 (Homo sapiens) (Q15078 99-307 partner limits assumed): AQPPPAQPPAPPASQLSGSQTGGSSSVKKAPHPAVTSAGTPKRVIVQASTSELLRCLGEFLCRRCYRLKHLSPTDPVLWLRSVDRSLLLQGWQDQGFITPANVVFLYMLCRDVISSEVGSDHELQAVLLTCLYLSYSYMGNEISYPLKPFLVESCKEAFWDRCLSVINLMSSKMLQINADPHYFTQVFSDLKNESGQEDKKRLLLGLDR
Sequence of CDK3/Cyclin E (Homo sapiens) (P24864 whole entry, looked up): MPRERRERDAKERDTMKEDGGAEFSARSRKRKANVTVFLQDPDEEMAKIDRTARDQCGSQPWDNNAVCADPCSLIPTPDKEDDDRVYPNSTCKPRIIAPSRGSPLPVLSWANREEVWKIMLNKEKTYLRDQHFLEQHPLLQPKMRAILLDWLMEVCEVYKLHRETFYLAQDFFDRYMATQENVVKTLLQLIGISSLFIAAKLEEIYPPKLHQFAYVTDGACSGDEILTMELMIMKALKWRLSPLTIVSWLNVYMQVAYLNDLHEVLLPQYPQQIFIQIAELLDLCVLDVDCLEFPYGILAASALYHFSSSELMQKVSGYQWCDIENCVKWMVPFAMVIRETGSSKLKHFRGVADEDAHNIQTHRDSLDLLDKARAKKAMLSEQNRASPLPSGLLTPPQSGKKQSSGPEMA
Sequence of CDK3/Cyclin E (Homo sapiens) (Q00526 whole entry, looked up): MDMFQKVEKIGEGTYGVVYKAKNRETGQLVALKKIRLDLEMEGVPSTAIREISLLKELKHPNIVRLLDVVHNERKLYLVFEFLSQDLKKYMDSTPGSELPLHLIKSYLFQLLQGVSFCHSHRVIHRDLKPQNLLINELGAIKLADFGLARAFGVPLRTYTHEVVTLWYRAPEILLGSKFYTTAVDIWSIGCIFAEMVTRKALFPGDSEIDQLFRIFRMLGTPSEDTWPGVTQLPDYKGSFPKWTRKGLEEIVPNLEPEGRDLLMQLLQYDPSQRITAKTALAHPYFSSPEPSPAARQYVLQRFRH

## CC(=O)N1CCC(NC(=O)c2ccc3cc2OCCCCCCOc2cc(ccc2F)-c2nc(ncc2F)N3)CC1
[1]
  microsomal CLint: 23.5 µL/min/mg
[2]
  clearance: 13.3 mL/min/kg
[3]
  Activity: Non-toxic
[4]
  AUC(0-inf): 766 ng·h/mL
[5]
  half-life: 4.2 h
[6]
  AUC(0-t): 2530 ng·h/mL
[7]
  inhibition: Active
[8]
  Tmax: 0.56 h
[9]
  IC50: 480 nM
[10]
  Activity: Active
[11]
  inhibition: Active
[12]
  half-life: 1.62 h
[13]
  IC50: 63.9 nM
[14]
  inhibition: Active
[15]
  inhibition: 9.68%
[16]
  Vd: 30.7 L/kg
[17]
  AUC(0-t): 754 ng·h/mL
[18]
  clearance: 83.3 mL/min/kg
[19]
  microsomal CLint: 10.8 µL/min/mg
[20]
  IC50: < 10 nM
[21]
  Activity: 22%
[22]
  inhibition: 25.7%
[23]
  IC50: 70 nM
[24]
  IC50: 30.6 nM
[25]
  inhibition: inactive
[26]
  Tmax: 0.83 h
[27]
  Activity: Non-toxic
[28]
  Activity: Non-toxic
[29]
  IC50: 19.3 nM
[30]
  IC50: < 50 nM
[31]
  C0: 2527 ng/mL
[32]
  inhibition: 7.24%
[33]
  IC50: 133 nM
[34]
  microsomal CLint: 35.3 µL/min/mg
[35]
  inhibition: 82.5%
[36]
  Ratio IC50: 10
